Several values for one entry are separate records, joined by “and”; a condition that tells them apart may be missing. Equal entries are not always repeated. Where two headings read alike, the source gives them in different places.
How the values were obtained:
CDK2-CYCLINA = molecular target: T1, CDK2-CYCLINA (Homo sapiens, UniProt P24941); test: Microfluidic LabChip kinase inhibition assay, CDK2-CyclinA; format: biochemical; conditions: 50 μM ATP
T1 construct: purchased Millipore

CDK9-CYCLINT1 = molecular target: T2, CDK9-CYCLINT1 (Homo sapiens, UniProt P50750); test: Microfluidic LabChip kinase inhibition assay, CDK9-CyclinT1; format: biochemical
T2 construct: purchased Carna
T2 sequence (P50750 whole entry): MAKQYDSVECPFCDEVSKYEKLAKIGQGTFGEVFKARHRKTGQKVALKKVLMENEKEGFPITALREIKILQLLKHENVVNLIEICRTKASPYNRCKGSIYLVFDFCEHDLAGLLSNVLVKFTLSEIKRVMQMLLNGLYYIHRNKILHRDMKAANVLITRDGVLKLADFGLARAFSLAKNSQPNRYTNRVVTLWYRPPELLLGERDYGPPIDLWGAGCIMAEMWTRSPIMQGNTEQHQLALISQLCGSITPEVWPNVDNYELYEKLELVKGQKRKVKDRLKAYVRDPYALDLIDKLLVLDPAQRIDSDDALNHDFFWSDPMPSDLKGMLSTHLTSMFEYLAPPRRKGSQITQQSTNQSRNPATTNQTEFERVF
T2 sequence (O60563 whole entry partner): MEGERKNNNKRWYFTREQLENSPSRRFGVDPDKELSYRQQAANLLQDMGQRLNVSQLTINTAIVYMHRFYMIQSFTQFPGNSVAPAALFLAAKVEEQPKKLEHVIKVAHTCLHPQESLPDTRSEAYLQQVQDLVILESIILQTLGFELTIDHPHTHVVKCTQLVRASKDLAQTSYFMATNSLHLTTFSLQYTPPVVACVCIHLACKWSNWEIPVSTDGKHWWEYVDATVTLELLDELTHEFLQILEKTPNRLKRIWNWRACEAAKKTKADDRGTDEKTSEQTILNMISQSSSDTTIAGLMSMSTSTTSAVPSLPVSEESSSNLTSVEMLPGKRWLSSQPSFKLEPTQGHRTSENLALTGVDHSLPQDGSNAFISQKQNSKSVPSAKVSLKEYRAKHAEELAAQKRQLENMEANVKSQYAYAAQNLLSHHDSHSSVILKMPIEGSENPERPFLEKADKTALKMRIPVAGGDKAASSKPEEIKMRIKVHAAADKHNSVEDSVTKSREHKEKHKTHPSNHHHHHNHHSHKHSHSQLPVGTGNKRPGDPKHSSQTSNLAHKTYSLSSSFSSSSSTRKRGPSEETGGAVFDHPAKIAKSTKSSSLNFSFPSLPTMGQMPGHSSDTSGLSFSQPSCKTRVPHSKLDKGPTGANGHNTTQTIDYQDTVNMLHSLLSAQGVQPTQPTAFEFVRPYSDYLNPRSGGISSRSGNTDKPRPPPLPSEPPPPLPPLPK

CDK1/B = CDK1/B (Homo sapiens, UniProt P06493); test: Additional inhibition assay, CDK1/B; format: biochemical
Chain of CDK1/B (P06493 whole entry): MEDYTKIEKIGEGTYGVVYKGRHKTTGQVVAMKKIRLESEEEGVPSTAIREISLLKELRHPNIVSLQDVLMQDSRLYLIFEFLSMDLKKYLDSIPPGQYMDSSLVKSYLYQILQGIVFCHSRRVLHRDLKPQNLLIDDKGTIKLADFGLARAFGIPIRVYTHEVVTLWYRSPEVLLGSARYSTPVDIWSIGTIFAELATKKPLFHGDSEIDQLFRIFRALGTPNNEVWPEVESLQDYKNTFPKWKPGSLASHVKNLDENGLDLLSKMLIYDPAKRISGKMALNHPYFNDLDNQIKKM
Chain of CDK1/B (P14635 whole entry partner): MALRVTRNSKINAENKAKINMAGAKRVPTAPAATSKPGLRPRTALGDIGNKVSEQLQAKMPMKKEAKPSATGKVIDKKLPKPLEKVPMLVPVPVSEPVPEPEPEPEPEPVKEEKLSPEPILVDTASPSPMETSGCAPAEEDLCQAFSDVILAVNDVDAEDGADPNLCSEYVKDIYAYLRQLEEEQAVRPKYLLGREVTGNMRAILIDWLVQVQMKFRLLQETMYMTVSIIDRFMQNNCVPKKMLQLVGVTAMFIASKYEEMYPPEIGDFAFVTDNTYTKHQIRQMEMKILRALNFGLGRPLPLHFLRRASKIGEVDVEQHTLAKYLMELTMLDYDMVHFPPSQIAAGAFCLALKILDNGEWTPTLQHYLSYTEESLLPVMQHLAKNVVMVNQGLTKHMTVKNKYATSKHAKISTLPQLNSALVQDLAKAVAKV

CDK7 CyclinH = CDK7 CyclinH (Homo sapiens, UniProt P50613); test: Additional inhibition assay, CDK7 CyclinH; format: biochemical
Chain of CDK7 CyclinH (P50613 whole entry): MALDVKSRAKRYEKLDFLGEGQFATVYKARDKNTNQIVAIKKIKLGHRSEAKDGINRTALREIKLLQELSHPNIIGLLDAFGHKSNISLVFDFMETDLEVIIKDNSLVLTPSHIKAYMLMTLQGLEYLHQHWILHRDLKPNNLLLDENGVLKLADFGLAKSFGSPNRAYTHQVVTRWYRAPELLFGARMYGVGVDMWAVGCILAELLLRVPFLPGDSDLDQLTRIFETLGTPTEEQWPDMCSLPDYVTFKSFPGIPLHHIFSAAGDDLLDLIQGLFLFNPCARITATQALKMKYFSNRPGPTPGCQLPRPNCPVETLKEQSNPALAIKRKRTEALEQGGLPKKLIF
Chain of CDK7 CyclinH (P51946 whole entry partner): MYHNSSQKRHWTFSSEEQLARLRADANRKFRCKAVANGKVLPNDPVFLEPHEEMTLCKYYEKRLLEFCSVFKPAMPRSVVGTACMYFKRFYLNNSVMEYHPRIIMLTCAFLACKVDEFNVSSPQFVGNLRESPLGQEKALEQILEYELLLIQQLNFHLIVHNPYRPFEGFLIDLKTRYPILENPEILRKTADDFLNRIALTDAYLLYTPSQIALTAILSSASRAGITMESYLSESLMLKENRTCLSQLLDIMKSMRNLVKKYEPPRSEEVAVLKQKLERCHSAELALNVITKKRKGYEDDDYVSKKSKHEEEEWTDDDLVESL
Chain of CDK7 CyclinH (P51948 whole entry partner): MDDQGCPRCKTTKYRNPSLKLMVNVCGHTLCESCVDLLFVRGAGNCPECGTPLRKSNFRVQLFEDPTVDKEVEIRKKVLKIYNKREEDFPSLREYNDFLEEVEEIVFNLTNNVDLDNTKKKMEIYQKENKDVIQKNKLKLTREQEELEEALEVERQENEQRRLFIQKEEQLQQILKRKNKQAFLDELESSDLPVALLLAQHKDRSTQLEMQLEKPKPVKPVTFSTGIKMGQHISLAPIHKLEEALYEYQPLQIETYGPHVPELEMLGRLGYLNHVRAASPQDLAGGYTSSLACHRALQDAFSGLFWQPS

CDK4-CYCLIND1 = CDK4-CYCLIND1 (Homo sapiens, UniProt P11802); test: Microfluidic LabChip kinase inhibition assay, CDK4-CyclinD1; conditions: 200 μM ATP
Chain of CDK4-CYCLIND1 (P11802 whole entry): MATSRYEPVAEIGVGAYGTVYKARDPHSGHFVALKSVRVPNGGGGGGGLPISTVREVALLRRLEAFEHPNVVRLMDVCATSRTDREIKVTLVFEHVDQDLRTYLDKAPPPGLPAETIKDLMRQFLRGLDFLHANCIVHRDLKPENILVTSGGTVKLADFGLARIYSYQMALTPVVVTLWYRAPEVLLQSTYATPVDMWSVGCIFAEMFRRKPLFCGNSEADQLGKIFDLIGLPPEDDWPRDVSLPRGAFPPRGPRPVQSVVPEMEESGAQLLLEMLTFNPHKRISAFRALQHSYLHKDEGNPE
Chain of CDK4-CYCLIND1 (P24385 whole entry partner): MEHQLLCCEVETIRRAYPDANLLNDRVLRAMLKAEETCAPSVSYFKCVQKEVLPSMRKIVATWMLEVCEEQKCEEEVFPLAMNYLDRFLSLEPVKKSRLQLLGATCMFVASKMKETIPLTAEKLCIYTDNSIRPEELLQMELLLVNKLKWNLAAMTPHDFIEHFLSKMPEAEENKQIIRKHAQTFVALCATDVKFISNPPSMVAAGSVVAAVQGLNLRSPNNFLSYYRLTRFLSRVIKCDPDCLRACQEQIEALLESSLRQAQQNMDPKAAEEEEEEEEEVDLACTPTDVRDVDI

CDK6-CYCLIND3 = molecular target: T3, CDK6-CYCLIND3 (Homo sapiens, UniProt Q00534); test: Microfluidic LabChip kinase inhibition assay, CDK6-CyclinD3; format: biochemical; conditions: 300 μM ATP
T3 construct: purchased Carna
T3 sequence (Q00534 whole entry): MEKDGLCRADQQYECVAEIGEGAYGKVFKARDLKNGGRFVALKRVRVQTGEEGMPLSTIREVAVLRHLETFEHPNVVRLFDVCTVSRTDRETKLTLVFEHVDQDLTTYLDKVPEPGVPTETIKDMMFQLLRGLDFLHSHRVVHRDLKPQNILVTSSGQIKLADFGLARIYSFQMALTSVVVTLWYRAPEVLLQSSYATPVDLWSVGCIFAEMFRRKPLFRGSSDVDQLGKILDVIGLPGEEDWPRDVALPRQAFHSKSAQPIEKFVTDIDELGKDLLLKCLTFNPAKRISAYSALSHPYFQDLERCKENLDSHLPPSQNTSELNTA
T3 sequence (P30281 whole entry partner): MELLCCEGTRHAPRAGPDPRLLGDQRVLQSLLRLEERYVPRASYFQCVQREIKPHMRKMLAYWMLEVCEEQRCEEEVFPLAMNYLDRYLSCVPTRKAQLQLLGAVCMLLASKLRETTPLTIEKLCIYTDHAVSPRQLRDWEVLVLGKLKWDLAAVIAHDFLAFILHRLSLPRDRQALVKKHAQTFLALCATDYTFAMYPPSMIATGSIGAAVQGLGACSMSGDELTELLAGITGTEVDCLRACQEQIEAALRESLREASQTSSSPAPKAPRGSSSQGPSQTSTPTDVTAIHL

[1] = CDK4 CyclinD1 IC50 (μM), Table 3a, second value in parentheses on the next line
[2] = CDK4 CyclinD1 IC50 (μM), Table 3b, second value in parentheses on the next line
[3] = Table 2, 2 nM enzyme, read-out: CDK6 IC50
[4] = CDK4 IC50 (μM), Table 2, 1 nM enzyme
[5] = Table 3a, read-out: CDK6 CyclinD3 IC50
[6] = Table 3b, read-out: CDK6 CyclinD3 IC50

Row | SMILES | IC50 (CDK4-CYCLIND1; [1]) | IC50 (CDK4-CYCLIND1; [2]) | IC50 (CDK6-CYCLIND3; [3]) | IC50 (CDK4-CYCLIND1; [4]) | also measured
1 | CN1CCN(c2ccc(Nc3ncc4c(n3)N(C3CCCC3)C3(CC(=O)NC3=O)C4)cc2)CC1 (single isomer, unassigned) [Compound C136, 7′-cyclopentyl-2′-((4-(4-methylpiperazin-1-yl)phenyl)amino)-5′,7′-dihydrospiro[pyrrolidine-3,6′-pyrrolo[2,3-d]pyrimidine]-2,5-dione] | 0.0257 µM | 0.0257 µM |  |  | IC50 (CDK2-CYCLINA; Table 3a): 1540 nM; IC50 (CDK2-CYCLINA; Table 3b): 1540 nM; IC50 (CDK9-CYCLINT1): 80.5 nM; IC50 (CDK1/B; Table 3a): 1270 nM; IC50 (CDK1/B; Table 3b): 1270 nM; IC50 (CDK7 CyclinH; Table 3a): 5740 nM; IC50 (CDK7 CyclinH; Table 3b): 5740 nM
2 | CN1CCN(c2ccc(Nc3ncc4c(n3)N(C3CCCC3)C3(CC(=O)NC3=O)C4)cc2)CC1 (single isomer, unassigned) [Compound C137, 7′-cyclopentyl-2′-((4-(4-methylpiperazin-1-yl)phenyl)amino)-5′,7′-dihydrospiro[pyrrolidine-3,6′-pyrrolo[2,3-d]pyrimidine]-2,5-dione] | 0.202 µM | 0.202 µM |  |  | IC50 (CDK2-CYCLINA; Table 3a): 3330 nM; IC50 (CDK2-CYCLINA; Table 3b): 3330 nM; IC50 (CDK9-CYCLINT1; Table 3a, 10 μM ATP, read-out: CDK9 CyclinT1 IC50): 367 nM; IC50 (CDK1/B; Table 3a): 1650 nM; IC50 (CDK1/B; Table 3b): 1650 nM; IC50 (CDK7 CyclinH; Table 3a): 585 nM; IC50 (CDK7 CyclinH; Table 3b): 585 nM
3 | CN1CCN(c2ccc(Nc3ncc4c(n3)N(C3CCCC3)C3(CCNC3=O)C4)cc2F)CC1 (single isomer, unassigned) [Compound C197, 7′-cyclopentyl-2′-((3-fluoro-4-(4-methylpiperazin-1-yl)phenyl)amino)-5′,7′-dihydrospiro[pyrrolidine-3,6′-pyrrolo[2,3-d]pyrimidin]-2-one] | 0.0517 µM and 0.028 µM | 0.0517 µM and 0.028 µM |  |  | IC50 (CDK6-CYCLIND3; CDK6 CyclinD3 IC50 (μM), Table 3a): 0.258 µM; IC50 (CDK6-CYCLIND3; CDK6 CyclinD3 IC50 (μM), Table 3b): 0.258 µM; IC50 (CDK2-CYCLINA; Table 3a): 2100 nM; IC50 (CDK2-CYCLINA; Table 3b): 2100 nM; IC50 (CDK9-CYCLINT1): 46.6 nM; IC50 (CDK7 CyclinH; Table 3a): 22100 nM; IC50 (CDK7 CyclinH; Table 3b): 22100 nM
4 | O=C1CC2(Cc3cnc(Nc4ccc(C5=CCNCC5)cn4)nc3N2C2CCCC2)C(=O)N1 (stereo not shown) [Compound C93, 7′-cyclopentyl-2′-((1′,2′,3′,6′-tetrahydro-[3,4′-bipyridin]-6-yl)amino)-5′,7′-dihydrospiro[pyrrolidine-3,6′-pyrrolo[2,3-d]pyrimidine]-2,5-dione] |  |  | 31.8 µM | 6.84 µM | 
5 | O=C1NCCC12Cc1cnc(Nc3ccc(N4CCC(N5CCOCC5)CC4)cc3)nc1N2C1CCCC1 (stereo not shown) [Compound C95, 7′-cyclopentyl-2′-((4-(4-morpholinopiperidin-1-yl)phenyl)amino)-5′,7′-dihydrospiro[pyrrolidine-3,6′-pyrrolo[2,3-d]pyrimidin]-2-one] |  |  | 0.993 µM | 0.273 µM | 
6 | O=C1NCCC12Cc1cnc(Nc3ccc(N4CCC(N5CCOCC5)CC4)c(F)c3)nc1N2C1CCCC1 (stereo not shown) [Compound C97, 7′-cyclopentyl-2′-((3-fluoro-4-(4-morpholinopiperidin-1-yl)phenyl)amino)-5′,7′-dihydrospiro[pyrrolidine-3,6′-pyrrolo[2,3-d]pyrimidin]-2-one] |  |  | 0.287 µM | 0.0747 µM | 
7 | CN1CCN(c2ccc(Nc3ncc4c(n3)N(C3CCCC3)C(=O)C43CCNC3=O)cc2)CC1 (stereo not shown) [Compound C101, 7′-cyclopentyl-2′-((4-(4-methylpiperazin-1-yl)phenyl)amino)spiro[pyrrolidine-3,5′-pyrrolo[2,3-d]pyrimidine]-2,6′(7′H)-dione] |  |  | 43.4 µM | 21 µM | 
8 | O=C1NCCC12C(=O)N(C1CCCC1)c1nc(Nc3ccc(N4CCNCC4)c(F)c3)ncc12 (stereo not shown) [Compound C102, 7′-cyclopentyl-2′-((3-fluoro-4-(piperazin-1-yl)phenyl)amino)spiro[pyrrolidine-3,5′-pyrrolo[2,3-d]pyrimidine]-2,6′(7′H)-dione] |  |  | 25.5 µM | 21.8 µM | 
9 | CN(C)[C@H]1CCN(c2ccc(Nc3ncc4c(n3)N(C3CCCC3)C(=O)C43CCNC3=O)cc2F)C1 (stereo partly drawn) [Compound C105, 7′-cyclopentyl-2′-((4-((S)-3-(dimethylamino)pyrrolidin-1-yl)-3-fluorophenyl)amino)spiro[pyrrolidine-3,5′-pyrrolo[2,3-d]pyrimidine]-2,6′(7′H)-dione] |  |  | 29.7 µM | 11.8 µM | 
10 | O=C1NCCC12Cc1cnc(Nc3ccc(N4CC5(CNC5)C4)c(F)c3)nc1N2C1CCCC1 (stereo not shown) [Compound C107, 7′-cyclopentyl-2′-((3-fluoro-4-(2,6-diazaspiro[3.3]heptan-2-yl)phenyl)amino)-5′,7′-dihydrospiro[pyrrolidine-3,6′-pyrrolo[2,3-d]pyrimidin]-2-one] |  |  | 0.335 µM | 0.0866 µM | 
11 | CC(C)N1CCN(c2ccc(Nc3ncc4c(n3)N(C3CCCC3)C3(CC(=O)NC3=O)C4)cc2)CC1 (stereo not shown) [Compound C134, 7′-cyclopentyl-2′-((4-(4-isopropylpiperazin-1-yl)phenyl)amino)-5′,7′-dihydrospiro[pyrrolidine-3,6′-pyrrolo[2,3-d]pyrimidine]-2,5-dione] |  |  |  |  | IC50 (CDK2-CYCLINA; Table 3a): 2280 nM; IC50 (CDK2-CYCLINA; Table 3b): 2280 nM; IC50 (CDK1/B; Table 3a): 1780 nM; IC50 (CDK1/B; Table 3b): 1780 nM; IC50 (CDK7 CyclinH; Table 3a): 8100 nM; IC50 (CDK7 CyclinH; Table 3b): 8100 nM
12 | CN1CCN(c2ccc(Nc3ncc4c(n3)N(C3CCCC3)C3(CC(=O)NC3=O)C4)cc2F)CC1 (stereo not shown) [Compound C198, 7′-cyclopentyl-2′-((3-fluoro-4-(4-methylpiperazin-1-yl)phenyl)amino)-5′,7′-dihydrospiro[pyrrolidine-3,6′-pyrrolo[2,3-d]pyrimidine]-2,5-dione] |  |  |  |  | IC50 (CDK2-CYCLINA; Table 3a): 247 nM; IC50 (CDK2-CYCLINA; Table 3b): 247 nM; IC50 (CDK7 CyclinH; Table 3a): 168 nM; IC50 (CDK7 CyclinH; Table 3b): 168 nM
13 | CN1CCN(c2ccc(Nc3ncc4c(n3)N(C3CCCCC3)C3(CCNC3=O)C4)cc2)CC1 (stereo not shown) [Compound C199, 7′-cyclohexyl-2′-((4-(4-methylpiperazin-1-yl)phenyl)amino)-5′,7′-dihydrospiro[pyrrolidine-3,6′-pyrrolo[2,3-d]pyrimidin]-2-one] | 0.0332 µM | 0.0332 µM |  |  | IC50 (CDK6-CYCLIND3; [5]): 0.103 µM; IC50 (CDK6-CYCLIND3; [6]): 0.103 µM
14 | CN1CCN(c2ccc(Nc3ncc4c(n3)N(C3CCCCC3)C3(CCNC3=O)C4)cc2F)CC1 (stereo not shown) [Compound C200, 7′-cyclohexyl-2′-((3-fluoro-4-(4-methylpiperazin-1-yl)phenyl)amino)-5′,7′-dihydrospiro[pyrrolidine-3,6′-pyrrolo[2,3-d]pyrimidin]-2-one] | 0.0138 µM and 0.0102 µM | 0.0138 µM and 0.0102 µM |  |  | IC50 (CDK6-CYCLIND3; [5]): 0.069 µM; IC50 (CDK6-CYCLIND3; [6]): 0.069 µM

More lines, main results first:

Row | IC50 (CDK4-CYCLIND1; [1]) | IC50 (CDK4-CYCLIND1; [2]) | IC50 (CDK6-CYCLIND3; [3]) | IC50 (CDK4-CYCLIND1; [4]) | SMILES | also measured
15 |  |  | 0.0955 µM | 0.0831 µM | CN(C)CCOc1ccc(Nc2ncc3c(n2)N(C2CCCC2)C2(CC(=O)NC2=O)C3)nc1 (stereo not shown) [Compound C92, 7′-cyclopentyl-2′-((5-(2-(dimethylamino)ethoxy)pyridin-2-yl)amino)-5′,7′-dihydrospiro[pyrrolidine-3,6′-pyrrolo[2,3-d]pyrimidine]-2,5-dione] | 
16 |  |  | 0.0456 µM | 0.0462 µM | CC(C)N1CC=C(c2ccc(Nc3ncc4c(n3)N(C3CCCC3)C3(CC(=O)NC3=O)C4)nc2)CC1 (stereo not shown) [Compound C94, 7′-cyclopentyl-2′-((1′-isopropyl-1′,2′,3′,6′-tetrahydro-[3,4′-bipyridin]-6-yl)amino)-5′,7′-dihydrospiro[pyrrolidine-3,6′-pyrrolo[2,3-d]pyrimidine]-2,5-dione] | 
17 |  |  | 0.488 µM | 0.142 µM | O=C1NCCC12Cc1cnc(Nc3ccc(N4CCC(N5CCOCC5)CC4)nc3)nc1N2C1CCCC1 (stereo not shown) [Compound C96, 7′-cyclopentyl-2′-((6-(4-morpholinopiperidin-1-yl)pyridin-3-yl)amino)-5′,7′-dihydrospiro[pyrrolidine-3,6′-pyrrolo[2,3-d]pyrimidin]-2-one] | 
18 |  |  | 33.4 µM | 13.7 µM | CN1CCN(c2ccc(Nc3ncc4c(n3)N(C3CCCC3)C(=O)C43CCNC3=O)nc2)CC1 (stereo not shown) [Compound C100, 7′-cyclopentyl-2′-((5-(4-methylpiperazin-1-yl)pyridin-2-yl)amino)spiro[pyrrolidine-3,5′-pyrrolo[2,3-d]pyrimidine]-2,6′(7′H)-dione] | 
19 |  |  | 50.7 µM | 20 µM | CN1CCN(c2ccc(Nc3ncc4c(n3)N(C3CCCC3)C(=O)C43CCNC3=O)cc2F)CC1 (stereo not shown) [Compound C103, 7′-cyclopentyl-2′-((3-fluoro-4-(4-methylpiperazin-1-yl)phenyl)amino)spiro[pyrrolidine-3,5′-pyrrolo[2,3-d]pyrimidine]-2,6′(7′H)-dione] | 
20 |  |  | 14.7 µM | 7.35 µM | O=C1NCCC12C(=O)N(C1CCCC1)c1nc(Nc3ccc(N4CCC(N5CCOCC5)CC4)c(F)c3)ncc12 (stereo not shown) [Compound C106, 7′-cyclopentyl-2′-((3-fluoro-4-(4-morpholinopiperidin-1-yl)phenyl)amino)spiro[pyrrolidine-3,5′-pyrrolo[2,3-d]pyrimidine]-2,6′(7′H)-dione] | 
21 | 0.0393 µM | 0.0393 µM |  |  | CN1CCN(c2ccc(Nc3ncc4c(n3)N(C3CCCCC3)C3(CCNC3=O)C4)cn2)CC1 (stereo not shown) [Compound C201, 7′-cyclohexyl-2′-((6-(4-methylpiperazin-1-yl)pyridin-3-yl)amino)-5′,7′-dihydrospiro[pyrrolidine-3,6′-pyrrolo[2,3-d]pyrimidin]-2-one] | IC50 (CDK6-CYCLIND3; [5]): 0.115 µM; IC50 (CDK6-CYCLIND3; [6]): 0.115 µM
22 | 0.368 µM | 0.368 µM |  |  | CN1CCN(c2ccc(Nc3ncc4c(n3)N(C3CCCCC3)C3(CCNC3=O)C4)nc2)CC1 (stereo not shown) [Compound C202, 7′-cyclohexyl-2′-((5-(4-methylpiperazin-1-yl)pyridin-2-yl)amino)-5′,7′-dihydrospiro[pyrrolidine-3,6′-pyrrolo[2,3-d]pyrimidin]-2-one] | IC50 (CDK6-CYCLIND3; [5]): 0.704 µM; IC50 (CDK6-CYCLIND3; [6]): 0.704 µM
